Data from patent US11576912B2, “Target genes in MYC-driven neoplasia” (The Board of Trustees of the Leland Stanford Junior …, priority 2017, dated 2023).

Experiments:
EC4 cells [1] = assay: EU labeling and imaging of total RNA distribution (RNA export); format: cell-based, mouse; conditions: EC4 cells overexpressing MYC, 150 nM KPT-330, 5 h EU labeling, compared with DMSO controls
Protocol: EU-Labeling and Visualization of Total RNA EC4 cells were labeled with 1 mM 5-ethynyl uridine (EU) for 5h in the presence of 150 nM KPT-330 or vehicle (DMSO control) at 37 degrees and 5% CO2. Cells were then fixed with 4% formaldehyde in PBS at room temperature for 20 minutes, washed consecutively with PBS, 50 mM NH4Cl/PBS, PBS (10 minutes each) and permeabilized with 0.2% TritonX100/PBS. After washing with PBS, EU was labeled with Alexa-647-azide using the Click-IT imaging kit (Invitrogen) following the manufacturer's instructions. Images were acquired on a DMI 6000 B (Leica) epifluorescence microscope. Mean fluorescence intensities in regions of interest in the cytoplasm and in the nucleus omitting nucleoli were determined using ImageJ.

EC4 cells [2] = assay: Flow cytometric analysis of apoptosis (7-AAD/Annexin V); format: cell-based, mouse; conditions: versus DMSO
Protocol: Flow Cytometric Analysis of Apoptosis For apoptosis staining, cells were stained with 7-AAD and PE-Annexin-V (Becton Dickinson) and analyzed on a FACScan flow cytometer following manufacturer's instructions. FACS data was analyzed with FlowJo software (Tree Star). The apoptotic cell populations were defined by positive staining of both Annexin-V and 7-AAD.

[3] = IC50 determination, CellTiter-Glo cell viability, cell lines with high MYC expression; format: cell-based, human and mouse; conditions: Mus musculus; range over MYC overexpressing cancer cell lines, 72 hours
Protocol: (§1) IC50 Determination Cells were seeded at a density of 1000-2000 cells/well in 96-well plates. Cells were treated with different concentrations of KPT-330 (1:3 dilution from 10 micromolar to 0.33 nanomolar) for 72 hours. MYC expression was shut off by treating the cells with doxycycline (100ng/ml). All experiments were performed in quadruplicates. Cell viability was determined using the CellTiter-Glo Luminescent Cell Viability Assay (Promega). The IC50 was calculated using the Prism software (GraphPad). The log-transformed concentration values and the normalized luminance data were fitted to a four-parameter logistic equation to derive the IC50 value.

[4] = IC50 determination, CellTiter-Glo cell viability, low MYC liver cancer cell lines and normal fibroblasts; format: cell-based; conditions: Homo sapiens; range over normal fibroblast cell line and liver cancer cell lines with low MYC expression, 72 hours
Protocol: as §1

[5] = test system: primary liver tumors in the LAP-tTA/tet-O-MYC mouse model
Protocol: KPT-330 Treatment In Vivo and Monitoring the Tumor Size
The KPT-330 (Selleckchem) was dissolved in vehicle (1% Pluronic F-68 and 1% PVP-K29/32, 25 mg/kg) was administered by oral gavage to tumor-bearing mice three times a week for 6 doses total. A 7T MRI for small animals was used to image tumor both before and after treatment. Tumor volume was calculated based on the T2 weighted image stacks using the Osirix software. For short-term treatment, the mice were treated with either vehicle or KPT-330 for three doses and sacrificed the following day after the third dose.
Western Blot and Immunohistochemical Analysis
The following antibodies were used for Western blotting and IHC: MYC (9E10 for Western blot and Epitomics 1472-1 for IHC), Tubulin (Sigma), Cleaved caspase 3 and phospho-Histone H3 (Cell Signaling). Immunofluorescence or bright field pictures were taken with 20× objectives on a Leica DMI6000 B microscope and quantified using MetaMorph image analysis software.

[6] = short-term treatment, three doses

## O=C(/C=C\n1cnc(-c2cc(C(F)(F)F)cc(C(F)(F)F)c2)n1)NNc1cnccn1 [KPT-330]
EC4 cells [1]
  RNA distribution in the cytoplasm: significantly reduced RNA distribution in the cytoplasm
  RNA nuclear-cytoplasmic ratio: increased RNA nuclear-cytoplasmic ratio
EC4 cells [2]; EC4 cells with MYC OFF (doxycycline)
  increase in apoptosis: modest increase in apoptosis
EC4 cells [2]; EC4 cells with MYC overexpression (MYC ON)
  induction of tumor cell apoptosis: four-fold induction of tumor cell apoptosis
[3]
  IC50: 70 to 300 nM
[4]
  IC50: ≥ 300 nM
[5]; 25 mg/kg oral gavage three times a week, 6 doses, two weeks, MRI before and after
  reduction in tumor volume: more than 95%
[5]; H&E staining of tumor sections
  histological examination of tumor sections: only sporadic tumor cells left
[5]; mouse, in vivo
  proliferation or apoptosis in adjacent liver tissues (toxicity to normal hepatocytes): minimal toxicity to the normal hepatocytes
[5]; [6]
  tumor cell apoptosis by cleaved caspase-3 staining: significantly induced apoptosis
  tumor cell proliferation by phospho-histone H3 staining: completely suppressed the proliferation
[5]; two mice with smaller tumors, 6 doses, two weeks
  tumor regression according to MRI scan: complete tumor regression
